Measured values as given in US6355799B1, “Substituted benzene compounds, process for their preparation, and herbicidal and defoliant compositions containing them” (ISK Americas Incorporated, priority 1997, dated 2002).

Assays:
Format in all cases: in vivo
[1] = tested on: redroot pigweed (Amaranthus retroflexus, AMARE); assay: Pre-emerge test, greenhouse herbicide activity screening; details: rated 14 days after application, 0 = no damage, 100 = complete death
How it was run: (§1)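 Sandy loam pots; pre-emerge: sown 1 d pre-spray, surface-watered after, then bottom-watered. Post-emerge: sown 8–21 d before, 2–3 leaf stage, + 0.25% v/v NIS, bottom-watered. Acetone, 187 l/ha track spray, 15–1000 g ai/ha. 0–100 injury score, day 14.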

[2] = tested on: barnyardgrass (Echinochloa crus-galli, ECHCG); assay: as above; details: rated 14 days after application, 0 = no damage, 100 = complete death
How it was run: as §1

[3] = tested on: common ragweed (Ambrosia artemisizfolia L., AMBEL); assay: as above; details: rated 14 days after application, 0 = no damage, 100 = complete death
How it was run: as §1

[4] = tested on: green foxtail (Setaria viridis, SETVI); assay: as above; details: rated 14 days after application, 0 = no damage, 100 = complete death
How it was run: as §1

[5] = tested on: ivyleaf morningglory (Ipomoea hederacea, IPOHE); assay: as above; details: rated 14 days after application, 0 = no damage, 100 = complete death
How it was run: as §1

[6] = tested on: johnsongrass (Sorghum halepense, SORHA); assay: as above; details: rated 14 days after application, 0 = no damage, 100 = complete death
How it was run: as §1

[7] = tested on: lambsquarters (Chenopodium album, CHEAL); assay: as above; details: rated 14 days after application, 0 = no damage, 100 = complete death
How it was run: as §1

[8] = tested on: large crabgrass (Digitaria sanguinalis, DIGSA); assay: as above; details: rated 14 days after application, 0 = no damage, 100 = complete death
How it was run: as §1

[9] = tested on: sicklepod (Cassia obtusifolia, CASOB); assay: as above; details: rated 14 days after application, 0 = no damage, 100 = complete death
How it was run: as §1

[10] = tested on: velvetleaf (Abutilon theophrasti, ABUTH); assay: as above; details: rated 14 days after application, 0 = no damage, 100 = complete death
How it was run: as §1

[11] = tested on: field corn (Zea mays L., var. Dekalb 535, CORN); assay: Pre-emerge test, crop safety; details: rated 14 days after application, 0 = no damage, 100 = complete death
How it was run: (§2)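 Rating: 0–100 visual injury, 14 DAA. Application: acetone, 187 l/ha, 15–1000 g ai/ha, flat-fan track sprayer with nozzle 40–45 cm above soil or canopy. Post-emerge runs used 0.25% v/v surfactant on 2–3 leaf plants.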

[12] = tested on: upland rice (Oryza sp., var. Tebonnet, RICE); assay: Pre-emerge test, crop safety; details: rated 14 days after application, 0 = no damage, 100 = complete death
How it was run: as §2

[13] = tested on: barnyardgrass (Echinochloa crus-galli, ECHCG); assay: Post-emerge test, greenhouse herbicide activity screening; details: post-emerge, 14 days after application, rating scale 0-100
How it was run: (§3)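 Plants grown in 10 cm pots of sandy loam mix received acetone-dissolved compounds through a moving flat-fan nozzle. Doses ranged from 15 to 1000 g ai/ha. Pre-emerge pots were seeded one day earlier, post-emerge pots 8–21 days earlier. Fourteen days on, each pot was graded 0–100 for damage.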

[14] = tested on: common ragweed (Ambrosia artemisizfolia L., AMBEL); assay: as above; details: post-emerge, 14 days after application, rating scale 0-100
How it was run: as §3

[15] = tested on: ivyleaf morningglory (Ipomoea hederacea, IPOHE); assay: as above; details: post-emerge, 14 days after application, rating scale 0-100
How it was run: as §3

[16] = tested on: johnsongrass (Sorghum halepense, SORHA); assay: as above; details: post-emerge, 14 days after application, rating scale 0-100
How it was run: as §3

[17] = tested on: lambsquarters (Chenopodium album, CHEAL); assay: as above; details: post-emerge, 14 days after application, rating scale 0-100
How it was run: as §3

[18] = tested on: large crabgrass (Digitaria sanguinalis, DIGSA); assay: as above; details: post-emerge, 14 days after application, rating scale 0-100
How it was run: as §3

[19] = tested on: redroot pigweed (Amaranthus retroflexus, AMARE); assay: as above; details: post-emerge, 14 days after application, rating scale 0-100
How it was run: as §3

[20] = tested on: sicklepod (Cassia obtusifolia, CASOB); assay: as above; details: post-emerge, 14 days after application, rating scale 0-100
How it was run: as §3

[21] = tested on: velvetleaf (Abutilon theophrasti, ABUTH); assay: as above; details: post-emerge, 14 days after application, rating scale 0-100
How it was run: as §3

[22] = tested on: field corn (Zea mays L., var. Dekalb 535, CORN); assay: Post-emerge test, crop safety; details: post-emerge, 14 days after application, rating scale 0-100
How it was run: as §1

[23] = tested on: upland rice (Oryza sp., var. Tebonnet, RICE); assay: Post-emerge test, crop safety; details: post-emerge, 14 days after application, rating scale 0-100
How it was run: as §1

COc1c(Cl)cc(F)c(-n2c(=O)cc(C(F)(F)F)n(C)c2=O)c1NC(=O)c1ccc(-c2ccccc2)cc1 [2-37]
50: Pre-emerge Herbicidal Activity, phytotoxicity rating (0-100), CHEAL ([7]; 250 g ai/ha)
0: Pre-emerge Herbicidal Activity, phytotoxicity rating (0-100), AMARE ([1]; 63 g ai/ha) | Pre-emerge Herbicidal Activity, phytotoxicity rating (0-100), ECHCG ([2]; 63 g ai/ha) | Pre-emerge Herbicidal Activity, phytotoxicity rating (0-100), ECHCG ([2]; 250 g ai/ha) | Pre-emerge Herbicidal Activity, phytotoxicity rating (0-100), AMBEL ([3]; 63 g ai/ha) | Pre-emerge Herbicidal Activity, phytotoxicity rating (0-100), AMBEL ([3]; 250 g ai/ha) | Pre-emerge Herbicidal Activity, phytotoxicity rating (0-100), SETVI ([4]; 63 g ai/ha) | Pre-emerge Herbicidal Activity, phytotoxicity rating (0-100), SETVI ([4]; 250 g ai/ha) | Pre-emerge Herbicidal Activity, phytotoxicity rating (0-100), IPOHE ([5]; 63 g ai/ha) | Pre-emerge Herbicidal Activity, phytotoxicity rating (0-100), IPOHE ([5]; 250 g ai/ha) | Pre-emerge Herbicidal Activity, phytotoxicity rating (0-100), SORHA ([6]; 63 g ai/ha) | Pre-emerge Herbicidal Activity, phytotoxicity rating (0-100), SORHA ([6]; 250 g ai/ha) | Pre-emerge Herbicidal Activity, phytotoxicity rating (0-100), CHEAL ([7]; 63 g ai/ha) | Pre-emerge Herbicidal Activity, phytotoxicity rating (0-100), DIGSA ([8]; 63 g ai/ha) | Pre-emerge Herbicidal Activity, phytotoxicity rating (0-100), DIGSA ([8]; 250 g ai/ha) | Pre-emerge Herbicidal Activity, phytotoxicity rating (0-100), CASOB ([9]; 63 g ai/ha) | Pre-emerge Herbicidal Activity, phytotoxicity rating (0-100), CASOB ([9]; 250 g ai/ha) | Pre-emerge Herbicidal Activity, phytotoxicity rating (0-100), ABUTH ([10]; 63 g ai/ha) | Pre-emerge phytotoxicity rating (0-100), crop damage, CORN ([11]; 63 g ai/ha) | Pre-emerge phytotoxicity rating (0-100), crop damage, CORN ([11]; 250 g ai/ha) | Pre-emerge phytotoxicity rating (0-100), crop damage, RICE ([12]; 63 g ai/ha) | Pre-emerge phytotoxicity rating (0-100), crop damage, RICE ([12]; 250 g ai/ha) | phytotoxicity rating ECHCG ([13]; 63 g ai/ha) | phytotoxicity rating ECHCG ([13]; 250 g ai/ha) | phytotoxicity rating AMBEL ([14]; 63 g ai/ha) | phytotoxicity rating AMBEL ([14]; 250 g ai/ha) | phytotoxicity rating IPOHE ([15]; 63 g ai/ha) | phytotoxicity rating IPOHE ([15]; 250 g ai/ha) | phytotoxicity rating SORHA ([16]; 63 g ai/ha) | phytotoxicity rating SORHA ([16]; 250 g ai/ha) | phytotoxicity rating CHEAL ([17]; 63 g ai/ha) | phytotoxicity rating DIGSA ([18]; 63 g ai/ha) | phytotoxicity rating DIGSA ([18]; 250 g ai/ha) | phytotoxicity rating AMARE ([19]; 63 g ai/ha) | phytotoxicity rating CASOB ([20]; 63 g ai/ha) | phytotoxicity rating CASOB ([20]; 250 g ai/ha) | phytotoxicity rating ABUTH ([21]; 63 g ai/ha) | phytotoxicity rating CORN ([22]; 63 g ai/ha) | phytotoxicity rating CORN ([22]; 250 g ai/ha) | phytotoxicity rating RICE ([23]; 63 g ai/ha) | phytotoxicity rating RICE ([23]; 250 g ai/ha)
10: phytotoxicity rating AMARE ([19]; 250 g ai/ha)
30: Pre-emerge Herbicidal Activity, phytotoxicity rating (0-100), AMARE ([1]; 250 g ai/ha) | Pre-emerge Herbicidal Activity, phytotoxicity rating (0-100), ABUTH ([10]; 250 g ai/ha) | phytotoxicity rating ABUTH ([21]; 250 g ai/ha)
20: phytotoxicity rating CHEAL ([17]; 250 g ai/ha)
